Assay results as given in ChEMBL document CHEMBL1201862, “PubChem BioAssay data set” (2004).
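These data come from cells grown in 96-well plates and exposed to compound for 48 hours at five concentrations. GI50 = concentration required for 50% inhibition of growth.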 Calls of active or inactive are those of the source. Cut-off read from the data, not from the text of the source: active = GI50 up to about 1.1 µM and inactive = higher.

Assays:
Assay in all cases: DTP human tumour cell line panel, 48 h
A498 = test system: A498
COLO 205 = test system: COLO 205
DU-145 = test system: DU-145
HCC 2998 = test system: HCC 2998
HOP-62 = test system: HOP-62
HOP-92 = test system: HOP-92
HT-29 = test system: HT-29
Hs-578T = test system: Hs-578T
M14 = test system: M14
MCF7 = test system: MCF7
Malme-3M = test system: Malme-3M
NCI/ADR-RES = test system: NCI/ADR-RES
OVCAR-5 = test system: OVCAR-5
SF-295 = test system: SF-295
SF-539 = test system: SF-539
SK-MEL-2 = test system: SK-MEL-2
SR = test system: SR
TK-10 = test system: TK-10
UACC-62 = test system: UACC-62

Measured: GI50

CC(C)(C)OC(=O)NC(Cc1ccc(OC(C)(C)C)cc1)C(=O)N[C@H]1CCC[C@H]1C(=O)NC(Cc1ccccc1)C(=O)N1CCCC1C(N)=O (stereo not given in full)
inactive: A498 > 100 µM | COLO 205 > 100 µM | DU-145 > 100 µM | HCC 2998 > 100 µM | HOP-62 > 100 µM | HOP-92 > 100 µM | HT-29 > 100 µM | Hs-578T > 100 µM | M14 > 100 µM | MCF7 > 100 µM | Malme-3M > 100 µM | NCI/ADR-RES > 100 µM | OVCAR-5 > 100 µM | SF-295 > 100 µM | SF-539 > 100 µM | SK-MEL-2 > 100 µM | SR > 100 µM | TK-10 > 100 µM | UACC-62 > 100 µM

Clc1ccc(/C=N/c2ccc3c(c2)Cc2ccccc2-3)c(Cl)c1
inactive: A498 > 100 µM | COLO 205 > 100 µM | DU-145 > 100 µM | HOP-62 > 100 µM | HOP-92 > 100 µM | HT-29 > 100 µM | Hs-578T > 100 µM | M14 > 100 µM | MCF7 > 100 µM | Malme-3M > 100 µM | NCI/ADR-RES > 100 µM | OVCAR-5 > 100 µM | SF-295 > 100 µM | SF-539 > 100 µM | SK-MEL-2 > 100 µM | SR 45.9 µM | TK-10 > 100 µM | UACC-62 > 100 µM

O=C1C(Cl)C2(CC(/C=C/c3ccccc3Cl)=NN2c2cccc(S(=O)(=O)O)c2)N1c1nc2ccccc2s1 (stereo not given)
inactive: A498 66.7 µM | COLO 205 > 100 µM | DU-145 21.2 µM | HCC 2998 85.9 µM | HOP-92 36.6 µM | HT-29 98.2 µM | Hs-578T 81.8 µM | M14 72.6 µM | MCF7 21.6 µM | Malme-3M 27 µM | NCI/ADR-RES > 100 µM | OVCAR-5 > 100 µM | SF-539 7.67 µM | SK-MEL-2 > 100 µM | SR 1.35 µM | TK-10 24.2 µM | UACC-62 18.9 µM

CC(C)(CO)CNc1cc(Cl)nc(N)n1
inactive: A498 > 100 µM | COLO 205 > 100 µM | DU-145 > 100 µM | HCC 2998 > 100 µM | HOP-62 > 100 µM | HOP-92 > 100 µM | HT-29 > 100 µM | Hs-578T > 100 µM | MCF7 > 100 µM | Malme-3M > 100 µM | NCI/ADR-RES > 100 µM | OVCAR-5 > 100 µM | SF-295 > 100 µM | SF-539 > 100 µM | SK-MEL-2 > 100 µM | SR > 100 µM | TK-10 > 100 µM | UACC-62 > 100 µM

CCOC(=O)COc1ccc2c(C)cc(=O)oc2c1
inactive: A498 > 100 µM | COLO 205 > 100 µM | DU-145 > 100 µM | HCC 2998 34.4 µM | HOP-62 > 100 µM | HOP-92 > 100 µM | HT-29 > 100 µM | Hs-578T > 100 µM | M14 > 100 µM | MCF7 > 100 µM | Malme-3M > 100 µM | NCI/ADR-RES > 100 µM | OVCAR-5 > 100 µM | SF-295 > 100 µM | SF-539 > 100 µM | SK-MEL-2 > 100 µM | SR > 100 µM | UACC-62 > 100 µM

CC1CN(c2cc3c(cc2F)c(=O)c(C(=O)O)cn3-c2ccc(N3CCN(C)CC3)cn2)CC(C)N1 (stereo not given)
inactive: A498 > 100 µM | COLO 205 52.8 µM | DU-145 > 100 µM | HOP-62 89.9 µM | HOP-92 > 100 µM | HT-29 > 100 µM | Hs-578T > 100 µM | M14 > 100 µM | MCF7 98.9 µM | Malme-3M > 100 µM | NCI/ADR-RES > 100 µM | OVCAR-5 > 100 µM | SF-295 > 100 µM | SF-539 > 100 µM | SR > 100 µM | TK-10 > 100 µM | UACC-62 > 100 µM

N=c1oc2ccccc2cc1C(=O)Nc1cccc2ccccc12
inactive: A498 > 100 µM | COLO 205 > 100 µM | DU-145 > 100 µM | HCC 2998 > 100 µM | HOP-62 50 µM | HOP-92 > 100 µM | HT-29 > 100 µM | Hs-578T > 100 µM | M14 > 100 µM | MCF7 83.2 µM | Malme-3M 56.6 µM | NCI/ADR-RES > 100 µM | OVCAR-5 > 100 µM | SF-539 > 100 µM | SK-MEL-2 > 100 µM | SR > 100 µM | UACC-62 > 100 µM

CCOC(=O)c1c(CN2CCCC2)n(-c2ccccc2)c2cc(Br)c(OC)cc12
inactive: A498 4.78 µM | COLO 205 11.8 µM | DU-145 17.7 µM | HOP-62 8.75 µM | HOP-92 10.6 µM | HT-29 7.57 µM | Hs-578T 29.9 µM | M14 16.3 µM | MCF7 6.87 µM | Malme-3M 16.7 µM | NCI/ADR-RES 15.2 µM | OVCAR-5 19.5 µM | SF-295 14.8 µM | SF-539 23.6 µM | SK-MEL-2 18 µM | SR 6.14 µM | TK-10 11.8 µM | UACC-62 10.9 µM

Cc1cc2c([N+](=O)[O-])cc3c(c2o1)C(=O)C=CC3=O
inactive: A498 15.5 µM | COLO 205 2.3 µM | DU-145 7.93 µM | HCC 2998 30.5 µM | HOP-62 19 µM | HOP-92 1.72 µM | HT-29 2.12 µM | Hs-578T 18.5 µM | M14 5.58 µM | MCF7 4.18 µM | NCI/ADR-RES 22.9 µM | OVCAR-5 20 µM | SF-295 8.13 µM | SF-539 15.1 µM | SK-MEL-2 19.1 µM | SR 5.41 µM | TK-10 2.38 µM | UACC-62 15.2 µM

C1=N\CCN2CCN(CC/N=C\c3ccccc3OCc3cccc(n3)COc3ccccc3/1)CC2
inactive: A498 40.9 µM | COLO 205 19.6 µM | DU-145 12.8 µM | HOP-62 14.6 µM | HOP-92 3.89 µM | HT-29 8.2 µM | Hs-578T 1.38 µM | M14 7.74 µM | MCF7 1.52 µM | Malme-3M 6.12 µM | NCI/ADR-RES 2.28 µM | OVCAR-5 9.18 µM | SF-295 3.62 µM | SF-539 3 µM | SK-MEL-2 20.6 µM | SR 1.71 µM | TK-10 8.3 µM | UACC-62 1.73 µM

CC1(C)OC(=O)CC12CCN(Cc1ccccc1)CC2
inactive: A498 > 100 µM | COLO 205 > 100 µM | DU-145 > 100 µM | HOP-62 > 100 µM | HOP-92 > 100 µM | HT-29 > 100 µM | Hs-578T > 100 µM | MCF7 > 100 µM | Malme-3M > 100 µM | NCI/ADR-RES > 100 µM | OVCAR-5 > 100 µM | SF-295 > 100 µM | SF-539 > 100 µM | SK-MEL-2 > 100 µM | SR > 100 µM | TK-10 > 100 µM | UACC-62 > 100 µM
